Results from US11452775B2, “Detection of arginine methylation of EGFR for prediction of resistance to therapy” (Board of Regents, The University of Texas System, priority 2013, dated 2022).

Legend:
[1] = test system: SKCO1 cells; experiment: Anchorage-independent growth (soft agar) assay for colony formation with or without gefitinib; format: cell-based; conditions: PRMT1-overexpressing and vector control cells
Description: (§1) FIGS. 1A-F. PRMT1-mediated cell proliferation and colony formation are EGFR signaling dependent. FIG. 1A. Cell proliferation assay of SKCO1 (left) and GEO (right) cells exogenously expressing PRMT1, PRMT1 shRNA, and control vector. In the top graphs, the top lines represent PRMT1 and the bottom lines represent Vector. In the bottom graphs, the top lines represent Vector and the bottom lines represent PRMT1 shRNA. P<0.05, t-test. FIG. 1B. Soft agar assay of SKCO1 cells exogenously expressing PRMT1, PRMT1 shRNA and control vector. Representative images from the anchorage-independent growth assay are shown above. *P<0.05, **P<0.005, t-test. FIG. 1C. Cell proliferation assay of SKCO1 (top) and GEO (bottom) cells expressing PRMT1 or vector control with or without gefitinib treatment. In both graphs, the top solid lines represent PRMT1 and the bottom solid lines represent Vector. In the top graph, the top dashed line represents PRMT1+gefitinib and the bottom dashed line represents Vector+gefitinib. P<0.05, t-test. FIG. 1D. […] All quantitative data were generated from a minimum of three replicates. Data are expressed as mean±s.d.
The base layer of cell growth matrix containing DMEM/F12 medium, 10% FBS, and 0.5% agar was paved in 6-well plates (1.5 ml per well). […] Colonies with a diameter larger than 0.5 mm were counted.

[2] = test system: SKCO1 and GEO cells; experiment: Cell proliferation assay with or without gefitinib; format: cell-based; conditions: PRMT1-overexpressing and vector control cells
Description: as §1, with “1D. Soft agar assay of SKCO1 exogenously expressing PRMT1 and control vector with or without gefitinib treatment. **P<0.005, t-test. FIG. 1E.” for “1D.”
Cells were then trypsinized and cell numbers counted on a daily basis.

With `COc1cc2ncnc(Nc3ccc(F)c(Cl)c3)c2cc1OCCCN1CCOCC1` [gefitinib] the colony formation [1] was “significantly inhibited” and the cell proliferation [2] was “significantly inhibited”.
